Results on 24 molecules are retold here after paper PMC9940855, “First-in-Class Dual Hybrid Carbonic Anhydrase Inhibitors and Transient Receptor Potential Vanilloid 1 Agonists Revert Oxaliplatin-Induced Neuropathy” (Journal of Medicinal Chemistry, 2023).

Molecules are shown by their SMILES.

The target in test [1] is T1, hCA IX (Homo sapiens, UniProt Q16790).
T1 construct: made in house
It counts as biochemical.

The target of test [2] is hCA VII (Homo sapiens, UniProt P43166). The conditions noted are these: read-out: KI hCA VII; stopped-flow CO2 hydrase assay; mean from three different assays, errors ±5–10%.
Chain of hCA VII (P43166 whole entry): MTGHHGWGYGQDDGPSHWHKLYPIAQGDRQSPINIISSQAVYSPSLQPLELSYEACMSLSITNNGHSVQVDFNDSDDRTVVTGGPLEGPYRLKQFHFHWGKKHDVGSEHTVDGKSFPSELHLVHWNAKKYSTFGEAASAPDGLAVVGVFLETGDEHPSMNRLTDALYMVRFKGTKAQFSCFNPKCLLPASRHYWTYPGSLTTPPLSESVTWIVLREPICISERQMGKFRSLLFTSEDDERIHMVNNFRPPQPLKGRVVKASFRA
Test [3] addresses hCA I (Homo sapiens, UniProt P00915). The conditions noted are these: read-out: KI hCA I; stopped-flow CO2 hydrase assay; mean from three different assays, errors ±5–10%.
The target in test [4] is hCA IV (Homo sapiens, UniProt P22748). The note with it: read-out: KI hCA IV; stopped-flow CO2 hydrase assay; mean from three different assays, errors ±5–10%.
Chain of hCA IV (P22748 19-312): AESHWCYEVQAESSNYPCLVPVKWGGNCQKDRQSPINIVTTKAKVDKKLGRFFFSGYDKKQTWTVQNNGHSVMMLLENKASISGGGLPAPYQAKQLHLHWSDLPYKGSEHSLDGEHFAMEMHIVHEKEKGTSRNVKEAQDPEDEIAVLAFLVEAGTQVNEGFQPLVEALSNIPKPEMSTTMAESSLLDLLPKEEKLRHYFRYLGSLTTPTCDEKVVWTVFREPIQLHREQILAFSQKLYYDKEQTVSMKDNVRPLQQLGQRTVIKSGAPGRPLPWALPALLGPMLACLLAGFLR
In test [5] the target is hCA II (Homo sapiens, UniProt P00918). The note with it: read-out: KI hCA II; stopped-flow CO2 hydrase assay; mean from three different assays, errors ±5–10%.
Test [6] deals with hCA XII (Homo sapiens, UniProt O43570). The note with it: read-out: KI hCA XII; stopped-flow CO2 hydrase assay; mean from three different assays, errors ±5–10%.
Chain of hCA XII (O43570 25-354): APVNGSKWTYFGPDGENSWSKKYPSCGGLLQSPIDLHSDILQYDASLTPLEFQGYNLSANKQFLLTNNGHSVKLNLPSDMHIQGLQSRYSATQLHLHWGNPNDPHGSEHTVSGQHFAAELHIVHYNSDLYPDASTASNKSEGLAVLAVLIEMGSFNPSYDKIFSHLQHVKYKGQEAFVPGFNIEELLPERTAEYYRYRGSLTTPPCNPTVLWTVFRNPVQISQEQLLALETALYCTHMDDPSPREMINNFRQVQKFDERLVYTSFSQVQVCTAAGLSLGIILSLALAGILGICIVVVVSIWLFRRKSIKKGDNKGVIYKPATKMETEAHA

Chain of hCA I (P00915 whole entry): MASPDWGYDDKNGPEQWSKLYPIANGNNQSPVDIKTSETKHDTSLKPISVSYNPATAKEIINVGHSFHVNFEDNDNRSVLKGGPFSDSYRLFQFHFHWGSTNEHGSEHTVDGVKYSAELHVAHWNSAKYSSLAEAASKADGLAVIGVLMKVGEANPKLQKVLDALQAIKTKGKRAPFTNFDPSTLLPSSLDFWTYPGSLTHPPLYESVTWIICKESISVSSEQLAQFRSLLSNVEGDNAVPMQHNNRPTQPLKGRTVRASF

Usually Ki stands for a measure of affinity in units of concentration, obtained from inhibition or displacement. `NS(=O)(=O)c1ccc(N2CCC(NC(=O)Nc3ccc(Cl)c(C(F)(F)F)c3)C2)nc1` (stereo in doubt) [10b, (R)-6-(3-(3-(4-Chloro-3-(trifluoromethyl)phenyl)ureido)pyrrolidin-1-yl)pyridine-3-sulfonamide]: the Ki was 77.5 nM in test [1], 15.6 nM in test [2], 707 nM in test [3] and 8520 nM in test [4].

Take `NS(=O)(=O)c1ccc(N2CC[C@H](NC(=O)Nc3ccc(F)cc3)C2)nc1` [7b, (S)-6-(3-(3-(4-Fluorophenyl)ureido)pyrrolidin-1-yl)pyridine-3-sulfonamide]: the Ki in test [1] is 20.2 nM; in test [2], 12.1 nM; in test [5], 187 nM; in test [4], 8240 nM; in test [6], 50.3 nM.

As to `NS(=O)(=O)c1ccc(N2CC[C@@H](NC(=S)Nc3ccc(F)cc3)C2)nc1` [8a, (R)-6-(3-(3-(4-Fluorophenyl)thioureido)pyrrolidin-1-yl)pyridine-3-sulfonamide], the Ki in test [1] worked out at 30.8 nM; in test [2], 8.6 nM; in test [4] it was 3120 nM; in test [6], 39.5 nM.

In the case of `NS(=O)(=O)c1ccc(N2CC[C@H](NC(=S)Nc3ccc(F)cc3)C2)nc1` [8b, (S)-6-(3-(3-(4-Fluorophenyl)thioureido)pyrrolidin-1-yl)pyridine-3-sulfonamide], the Ki in test [1] came out at 27.3 nM; in test [2], 2.6 nM; in test [4], 2700 nM; in test [6], 35.4 nM.

In the case of `NS(=O)(=O)c1ccc(N2CC[C@@H](NC(=S)Nc3ccccc3)C2)nc1` [9a, (R)-6-(3-(3-Phenylthioureido)pyrrolidin-1-yl)pyridine-3-sulfonamide], the Ki in test [1] was found to be 25.5 nM; in test [2], 8.5 nM; in test [3] it was 164 nM; in test [4] it was 3730 nM; in test [6] it was 59.3 nM.

Take `NS(=O)(=O)c1ccc(N2CC[C@H](NC(=S)Nc3ccccc3)C2)nc1` [9b, (S)-6-(3-(3-Phenylthioureido)pyrrolidin-1-yl)pyridine-3-sulfonamide]: the Ki was found to be 54.1 nM in test [1]; 11.6 nM in test [2]; 321 nM in test [3]; 9480 nM in test [4]; 23.4 nM in test [6].

In the case of `NS(=O)(=O)c1ccc(N2CC[C@H](NC(=O)Nc3ccccc3F)C2)nc1` [11b, (S)-6-(3-(3-(2-Fluorophenyl)ureido)pyrrolidin-1-yl)pyridine-3-sulfonamide], the Ki in test [2] worked out at 11.6 nM; in test [3], 476 nM; in test [6] it was 43.9 nM.

On to `NS(=O)(=O)c1ccc(N2CC[C@H](NC(=O)Nc3ccccc3Cl)C2)nc1` [12b, (S)-6-(3-(3-(2-Chlorophenyl)ureido)pyrrolidin-1-yl)pyridine-3-sulfonamide], for which the Ki was determined as 22.9 nM in test [1]; 0.9 nM in test [2]; 393 nM in test [3]; 2030 nM in test [4]; 41.7 nM in test [6].

For `NS(=O)(=O)c1ccc(N2CC[C@H](NC(=O)Nc3ccc(Oc4ccccc4)cc3)C2)nc1` [13b, (S)-6-(3-(3-(4-Phenoxyphenyl)ureido)pyrrolidin-1-yl)pyridine-3-sulfonamide], the results for the Ki in test [1], in test [2] and in test [6] were 89.8 nM, 52 nM and 89.9 nM, respectively.

Regarding `NS(=O)(=O)c1ccc(N2CC[C@H](NC(=O)Nc3ccc(Cl)c(Cl)c3)C2)nc1` [14b, (S)-6-(3-(3-(3,4-Dichlorophenyl)ureido)pyrrolidin-1-yl)pyridine-3-sulfonamide], the Ki in test [2] stood at 12.1 nM; in test [5], 556 nM; in test [4], 2530 nM; in test [6] it was 44.6 nM.

As for `NS(=O)(=O)c1ccc(N2CC[C@H](NC(=O)Nc3ccc4c(c3)OCCO4)C2)nc1` [15b, (S)-6-(3-(3-(2,3-Dihydrobenzo[b][1,4]dioxin-6-yl)ureido)pyrrolidin-1-yl)pyridine-3-sulfonamide], the inhibitory constant (Ki) turned out to be 82 nM in test [1]; 29.5 nM in test [2]; 400 nM in test [5]; 545 nM in test [3]; 5720 nM in test [4]; 62.9 nM in test [6].

Consider `NS(=O)(=O)c1ccc(N2CC[C@@H](NC(=O)Nc3cc(C(F)(F)F)cc(C(F)(F)F)c3)C2)nc1` [16a, (R)-6-(3-(3-(3,5-Bis(trifluoromethyl)phenyl)ureido)pyrrolidin-1-yl)pyridine-3-sulfonamide], for which the Ki was determined as 1440 nM in test [1]; 40.8 nM in test [2]; 903 nM in test [3]; 5160 nM in test [4]; 37.9 nM in test [6].

Consider `NS(=O)(=O)c1ccc(N2CC[C@H](NC(=O)Nc3cc(C(F)(F)F)cc(C(F)(F)F)c3)C2)nc1` [16b, (S)-6-(3-(3-(3,5-Bis(trifluoromethyl)phenyl)ureido)pyrrolidin-1-yl)pyridine-3-sulfonamide], for which the Ki came to 54.9 nM in test [1]; 8.3 nM in test [2]; 625 nM in test [3]; 2500 nM in test [4]; 9.4 nM in test [6].

Take `NS(=O)(=O)c1ccc(N2CC[C@@H](NC(=S)Nc3ccc(C4c5ccc(O)cc5Oc5cc(O)ccc54)c(C(=O)O)c3)C2)nc1` [17a, (R)-2-(3,6-Dihydroxy-9H-xanthen-9-yl)-5-(3-(1-(5-sulfamoylpyridin-2-yl)pyrrolidin-3-yl)thioureido)benzoic Acid]: the Ki in test [1] turned out to be 32 nM; in test [2] it was 7.8 nM; in test [5] it was 42.2 nM; in test [3], 80.6 nM; in test [4], 849 nM; in test [6], 3.9 nM.

Regarding `NS(=O)(=O)c1ccc(N2CC[C@H](NC(=S)Nc3ccc(C4c5ccc(O)cc5Oc5cc(O)ccc54)c(C(=O)O)c3)C2)nc1` [17b, (S)-2-(3,6-Dihydroxy-9H-xanthen-9-yl)-5-(3-(1-(5-sulfamoylpyridin-2-yl)pyrrolidin-3-yl)thioureido)benzoic Acid], the Ki in test [1] was 8.6 nM; in test [2], 14.9 nM; in test [5] it was 42.9 nM; in test [3] it was 91.5 nM; in test [4] it was 5220 nM; in test [6], 27.8 nM.

As for `NS(=O)(=O)c1ccc(N2CC[C@H](NC(=O)Nc3ccc([N+](=O)[O-])cc3)C2)nc1` [19b, (S)-6-(3-(3-(4-Nitrophenyl)ureido)pyrrolidin-1-yl)pyridine-3-sulfonamide], the Ki in test [1] was determined as 67.5 nM; in test [2], 8.2 nM; in test [5], 525 nM; in test [3] it was 800 nM; in test [6] it was 8.5 nM.

As for `NS(=O)(=O)c1ccc(N2CC[C@@H](NC(=O)Nc3ccc(C(F)(F)F)cc3)C2)nc1` [20a, (R)-6-(3-(3-(4-(Trifluoromethyl)phenyl)ureido)pyrrolidin-1-yl)pyridine-3-sulfonamide], the Ki was determined as 409 nM in test [5] and 44.2 nM in test [6].

On to `NS(=O)(=O)c1ccc(N2CC[C@H](NC(=O)Nc3ccc(C(F)(F)F)cc3)C2)nc1` [20b, (S)-6-(3-(3-(4-(Trifluoromethyl)phenyl)ureido)pyrrolidin-1-yl)pyridine-3-sulfonamide], for which the Ki worked out at 35.3 nM in test [5] and 48.7 nM in test [6].

Consider `NS(=O)(=O)c1ccc(N2CC[C@H](NC(=S)Nc3ccccc3F)C2)nc1` [21b, (S)-6-(3-(3-(2-Fluorophenyl)thioureido)pyrrolidin-1-yl)pyridine-3-sulfonamide], for which the inhibition constant (Ki) is 7.2 nM in test [1]; 31.3 nM in test [5]; 68.7 nM in test [3]; 843 nM in test [4]; 41 nM in test [6].

For `NS(=O)(=O)c1ccc(N2CC[C@H](NC(=O)Nc3c(F)cc(F)cc3Br)C2)nc1` [22b, (S)-6-(3-(3-(2-Bromo-4,6-difluorophenyl)ureido)pyrrolidin-1-yl)pyridine-3-sulfonamide], the Ki in test [2] was found to be 14 nM; in test [5], 482 nM; in test [4], 8200 nM; in test [6] it was 8.2 nM.

With `NS(=O)(=O)c1ccc(N2CC[C@@H](NC(=O)NS(=O)(=O)c3ccccc3Cl)C2)nc1` [25a, (R)-6-(3-(3-((2-Chlorophenyl)sulfonyl)ureido)pyrrolidin-1-yl)pyridine-3-sulfonamide], the Ki in test [1] came out at 9.2 nM; in test [2] it was 30.1 nM; in test [5], 15.4 nM; in test [3], 72.3 nM; in test [4], 704 nM.

With `NS(=O)(=O)c1ccc(N2CC[C@H](NC(=O)NS(=O)(=O)c3ccccc3Cl)C2)nc1` [25b, (S)-6-(3-(3-((2-Chlorophenyl)sulfonyl)ureido)pyrrolidin-1-yl)pyridine-3-sulfonamide], the Ki in test [1] is 9.7 nM; in test [2] it was 46.4 nM; in test [5] it was 38.5 nM; in test [3] it was 89.2 nM; in test [4], 911 nM.

For `NS(=O)(=O)c1cccc(NC(=S)N[C@H]2CCN(c3ccc(C(F)(F)F)cn3)C2)c1` [40b, (S)-3-(3-(1-(5-(Trifluoromethyl)pyridin-2-yl)pyrrolidin-3-yl)thioureido)benzenesulfonamide], the results for the Ki in test [1], in test [2] and in test [3] were 7.9 nM, 14.2 nM and 413 nM, respectively.

`NS(=O)(=O)c1cccc(NC(=O)N[C@H]2CCN(c3ccc(C(F)(F)F)cn3)C2)c1` [46b, (S)-3-(3-(1-(5-(Trifluoromethyl)pyridin-2-yl)pyrrolidin-3-yl)ureido)benzenesulfonamide]: the values for the Ki in test [5], in test [3] and in test [6] were 8.9 nM, 306 nM and 8.9 nM, respectively.
